Columns and labels:
[1] = Singlet oxygen formation quantum yield (phosphorescence emission at ~1270 nm vs phenazine standard); type: physicochemical; conditions: In CHCl3, excitation 337 nm
Experimental: The evaluation of the photosensitizing efficiency of the aminosquaraine dyes was performed in chloroform, by determining the singlet oxygen formation quantum yields (ΦΔ). Phenazine was used as standard. The phosphorescence emission of singlet oxygen generated by the sensitizers at approximately 1270 nm is presented in Figure 2 and the determined quantum yields are summarized in Table 1.
These ΦΔ values were obtained by a simple comparison of the integrated areas determined for the standard and samples, using the same OD at the excitation wavelength. For each determination an average of 100 phosphorescence spectra were used. […] As previously reported, the amino group in the squaric ring enhances singlet oxygen generation efficiency when compared with the unsubstituted zwitterionic dye 3. […] This is related with the intramolecular charge transfer (ICT) mechanism which provides a non-radiative deactivation pathway, therefore decreasing the singlet oxygen formation quantum yields ([44] and references therein).
The singlet oxygen measurement set-up was assembled in our laboratory as previously described. As an excitation source we used a nitrogen laser, excitation wavelength = 337 nm. The detector was an InGaAs CCD (model i-Dus from Andor Technology Limited, Belfast, UK) working at low temperature (−60 °C) coupled to a fixed spectrograph, model Shamrock 163i, also from Andor. Phenazine (standard) was used at O.D. = 0.6 in chloroform. The ΦΔ values were obtained by comparing the total area of the emission spectra for the reference and for each dye under study in the same solvent, with the same optical density at the excitation wavelength. […].

[2] = Fluorescence quantum yield; type: physicochemical; conditions: In CHCl3
From the text: As expected, due to the covalent link between iodine and the aminosquaraine, a strong heavy atom effect can be observed in all cases. This effect is emphasized in the case of the bis(hydroxyethyl)amino substituent group (dye 5c).

CCN1C(=CC2=C([O-])C(=Cc3sc4cc(I)ccc4[n+]3CC)C2=O)Sc2cc(I)ccc21 [Dye 3, 4-[(3-Ethyl-6-iodobenzothiazol-3-ium-2-yl)methylidene]-2-[(3-ethyl-6-iodo-3H-benzothiazol-2-ylidene)methyl]-3-oxocyclobut-1-en-1-olate]
melting point: > 300 °C | Φ∆ (singlet oxygen generation quantum yield) [1]: 0.05 | ΦF (fluorescence quantum yield) [2]: 0.03

Reference: PMC6429055, “Synthesis, Photochemical and In Vitro Cytotoxic Evaluation of New Iodinated Aminosquaraines as Potential Sensitizers for Photodynamic Therapy” (Molecules, 2019)
